Data from ChEMBL document CHEMBL1782001, “Discovery of selective PDE4B inhibitors” (Bioorg Med Chem Lett, 2009).

Assays:
[1] = molecular target: 3',5'-cyclic-AMP phosphodiesterase 4B (Homo sapiens, UniProt Q07343); experiment: Inhibition of human PDE4B1 incubated for 10 mins using cAMP and [3H]cAMP substrates
[2] = molecular target: 3',5'-cyclic-AMP phosphodiesterase 4D (Homo sapiens, UniProt Q08499); experiment: Inhibition of human PDE4D3 incubated for 10 mins using cAMP and [3H]cAMP substrates
[3] = organism: Homo sapiens; experiment: Selectivity ratio, ratio of IC50 for human PDE4D3 to IC50 for human PDE4B1
[4] = tested on: Mustela putorius furo; experiment: Inhibition of […] in ferret assessed as inhibition of LPS-induced change in number of neutrophils in lung lavage at 10 mg/kg, po; assay type: functional
[5] = tested on: Mustela putorius furo; experiment: Toxicity in ferret assessed as induction of emesis at 10 mg/kg, po measured 6 hrs post dose; assay type: organism-based; set-up: dose 10 mg/kg, route oral; details: in vivo
[6] = tested on: Mustela putorius furo; experiment: Toxicity in ferret assessed as induction of emesis at 0.3 mg/kg, po measured 6 hrs post dose; assay type: organism-based; set-up: dose 0.3 mg/kg, route oral; details: in vivo
[7] = tested on: Mus musculus; experiment: Inhibition of LPS-induced TNFalpha production in po dosed mouse; assay type: functional; details: read-out: ID50 (the source's name)
[8] = tested on: Mustela putorius furo; experiment: Toxicity in ferret assessed as induction of emesis at 1 mg/kg, po measured 6 hrs post dose; assay type: organism-based; set-up: dose 1 mg/kg, route oral; details: in vivo
[9] = tested on: Mustela putorius furo; experiment: Toxicity in ferret assessed as induction of emesis at 200 mg/kg, po measured 6 hrs post dose; assay type: organism-based; set-up: dose 200 mg/kg, route oral; details: in vivo
[10] = tested on: Mustela putorius furo; experiment: Toxicity in ferret assessed as induction of emesis at 100 mg/kg, po measured 6 hrs post dose; assay type: organism-based; set-up: dose 100 mg/kg, route oral; details: in vivo
[11] = AUC (0 to infinity) in mouse at 2 mg/kg, po; assay type: ADME, organism-based; set-up: time infinity, dose 2 mg/kg, route oral; details: plasma
[12] = Cmax in ferret at 2 mg/kg, po; assay type: ADME, organism-based, Mustela putorius furo; set-up: dose 2 mg/kg, route oral; details: in vivo
[13] = Oral bioavailability in mouse; assay type: ADME, organism-based; details: in vivo
[14] = molecular target: Cytochrome P450 2C9 (Homo sapiens, UniProt P11712); experiment: Inhibition of CYP2C9; assay type: ADME
[15] = molecular target: Cytochrome P450 3A4 (Homo sapiens, UniProt P08684); experiment: Inhibition of CYP3A4; assay type: ADME
[16] = molecular target: T1, Cytochrome P450 1A2 (Homo sapiens, UniProt P05177); experiment: Inhibition of CYP1A2; assay type: ADME
T1 sequence (P05177 whole entry): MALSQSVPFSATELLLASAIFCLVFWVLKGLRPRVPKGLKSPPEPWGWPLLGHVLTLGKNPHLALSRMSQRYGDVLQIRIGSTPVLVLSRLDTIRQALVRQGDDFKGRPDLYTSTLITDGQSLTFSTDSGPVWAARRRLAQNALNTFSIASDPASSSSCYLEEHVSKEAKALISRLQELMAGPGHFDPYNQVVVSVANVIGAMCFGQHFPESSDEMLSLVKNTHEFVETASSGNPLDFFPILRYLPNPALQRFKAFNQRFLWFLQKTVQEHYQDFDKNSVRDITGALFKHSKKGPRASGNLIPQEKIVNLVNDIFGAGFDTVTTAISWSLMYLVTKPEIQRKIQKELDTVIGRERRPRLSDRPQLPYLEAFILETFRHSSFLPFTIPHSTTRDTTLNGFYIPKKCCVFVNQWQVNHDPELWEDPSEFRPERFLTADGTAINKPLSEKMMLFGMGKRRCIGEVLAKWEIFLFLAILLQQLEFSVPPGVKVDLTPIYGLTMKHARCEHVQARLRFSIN

[17] = Inhibition of PDE1
[18] = Cmax in mouse at 2 mg/kg, po; assay type: ADME, organism-based; set-up: dose 2 mg/kg, route oral; details: in vivo
[19] = tested on: Mustela putorius furo; experiment: Inhibition of […] in ferret assessed as inhibition of LPS-induced change in number of neutrophils in lung lavage at 25 mg/kg, po; assay type: functional
[20] = AUC (0 to infinity) in ferret at 2 mg/kg, po; assay type: ADME, organism-based, Mustela putorius furo; set-up: time infinity, dose 2 mg/kg, route oral; details: plasma
[21] = tested on: Mustela putorius furo; experiment: Inhibition of […] in ferret assessed as inhibition of LPS-induced change in number of neutrophils in lung lavage at 12.5 mg/kg, po; assay type: functional
[22] = molecular target: cGMP-specific 3',5'-cyclic phosphodiesterase (Homo sapiens, UniProt O76074); experiment: Inhibition of PDE5
[23] = molecular target: Cytochrome P450 2D6 (Homo sapiens, UniProt P10635); experiment: Inhibition of CYP2D6; assay type: ADME
[24] = Inhibition of PDE6
[25] = Inhibition of PDE3

Sequence of 3',5'-cyclic-AMP phosphodiesterase 4D (Q08499 whole entry): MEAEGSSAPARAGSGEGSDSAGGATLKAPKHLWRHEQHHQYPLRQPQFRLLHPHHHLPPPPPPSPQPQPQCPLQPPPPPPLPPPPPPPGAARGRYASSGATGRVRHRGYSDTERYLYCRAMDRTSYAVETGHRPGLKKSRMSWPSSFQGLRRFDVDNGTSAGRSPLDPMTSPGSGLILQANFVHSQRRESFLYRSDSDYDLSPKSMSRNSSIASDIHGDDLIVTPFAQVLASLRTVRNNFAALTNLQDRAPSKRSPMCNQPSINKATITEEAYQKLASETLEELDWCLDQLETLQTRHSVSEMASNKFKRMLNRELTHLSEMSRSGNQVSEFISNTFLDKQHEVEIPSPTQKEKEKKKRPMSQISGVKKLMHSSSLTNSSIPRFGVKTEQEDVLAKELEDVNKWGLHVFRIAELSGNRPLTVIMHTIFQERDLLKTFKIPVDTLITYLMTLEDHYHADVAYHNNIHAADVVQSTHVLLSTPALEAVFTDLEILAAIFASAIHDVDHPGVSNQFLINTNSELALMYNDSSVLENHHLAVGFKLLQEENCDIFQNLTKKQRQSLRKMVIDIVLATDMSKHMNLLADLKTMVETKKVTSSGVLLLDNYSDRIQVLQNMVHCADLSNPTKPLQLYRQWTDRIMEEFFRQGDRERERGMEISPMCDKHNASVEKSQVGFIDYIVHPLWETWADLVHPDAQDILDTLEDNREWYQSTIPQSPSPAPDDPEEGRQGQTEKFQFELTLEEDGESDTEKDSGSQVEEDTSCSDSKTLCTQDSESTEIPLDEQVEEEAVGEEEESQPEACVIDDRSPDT
Sequence of 3',5'-cyclic-AMP phosphodiesterase 4B (Q07343 whole entry): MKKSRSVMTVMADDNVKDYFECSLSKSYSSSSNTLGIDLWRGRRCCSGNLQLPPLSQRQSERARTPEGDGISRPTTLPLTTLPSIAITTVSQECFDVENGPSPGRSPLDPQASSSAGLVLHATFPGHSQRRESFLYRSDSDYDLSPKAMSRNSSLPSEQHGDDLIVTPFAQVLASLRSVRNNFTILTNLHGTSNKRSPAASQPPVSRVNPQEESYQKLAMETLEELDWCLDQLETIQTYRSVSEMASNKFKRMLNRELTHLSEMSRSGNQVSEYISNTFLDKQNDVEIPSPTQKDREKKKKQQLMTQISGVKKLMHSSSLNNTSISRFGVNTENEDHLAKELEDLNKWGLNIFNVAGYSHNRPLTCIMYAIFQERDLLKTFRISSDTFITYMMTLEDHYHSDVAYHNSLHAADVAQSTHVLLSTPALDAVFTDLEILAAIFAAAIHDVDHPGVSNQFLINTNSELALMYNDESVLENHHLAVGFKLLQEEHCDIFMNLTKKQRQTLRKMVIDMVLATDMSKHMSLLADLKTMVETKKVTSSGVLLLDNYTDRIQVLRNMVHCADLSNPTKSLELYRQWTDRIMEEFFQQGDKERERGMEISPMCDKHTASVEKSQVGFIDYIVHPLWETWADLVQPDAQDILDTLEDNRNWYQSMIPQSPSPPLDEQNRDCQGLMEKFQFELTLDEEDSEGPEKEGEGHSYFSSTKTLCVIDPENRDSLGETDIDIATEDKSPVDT
Sequence of Cytochrome P450 2C9 (P11712 whole entry): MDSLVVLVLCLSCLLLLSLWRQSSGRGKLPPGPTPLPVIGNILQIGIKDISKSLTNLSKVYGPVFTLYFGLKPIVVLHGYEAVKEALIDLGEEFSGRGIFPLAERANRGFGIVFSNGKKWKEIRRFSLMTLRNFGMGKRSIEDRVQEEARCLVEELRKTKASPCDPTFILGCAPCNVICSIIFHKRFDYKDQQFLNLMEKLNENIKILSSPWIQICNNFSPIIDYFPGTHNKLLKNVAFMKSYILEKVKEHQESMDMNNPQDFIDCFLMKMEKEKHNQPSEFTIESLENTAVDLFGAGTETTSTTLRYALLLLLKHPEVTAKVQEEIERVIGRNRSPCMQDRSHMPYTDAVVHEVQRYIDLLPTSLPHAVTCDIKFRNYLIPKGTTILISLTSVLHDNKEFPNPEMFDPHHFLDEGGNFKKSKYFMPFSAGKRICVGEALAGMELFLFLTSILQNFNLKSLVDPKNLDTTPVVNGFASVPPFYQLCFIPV
Sequence of Cytochrome P450 2D6 (P10635 whole entry): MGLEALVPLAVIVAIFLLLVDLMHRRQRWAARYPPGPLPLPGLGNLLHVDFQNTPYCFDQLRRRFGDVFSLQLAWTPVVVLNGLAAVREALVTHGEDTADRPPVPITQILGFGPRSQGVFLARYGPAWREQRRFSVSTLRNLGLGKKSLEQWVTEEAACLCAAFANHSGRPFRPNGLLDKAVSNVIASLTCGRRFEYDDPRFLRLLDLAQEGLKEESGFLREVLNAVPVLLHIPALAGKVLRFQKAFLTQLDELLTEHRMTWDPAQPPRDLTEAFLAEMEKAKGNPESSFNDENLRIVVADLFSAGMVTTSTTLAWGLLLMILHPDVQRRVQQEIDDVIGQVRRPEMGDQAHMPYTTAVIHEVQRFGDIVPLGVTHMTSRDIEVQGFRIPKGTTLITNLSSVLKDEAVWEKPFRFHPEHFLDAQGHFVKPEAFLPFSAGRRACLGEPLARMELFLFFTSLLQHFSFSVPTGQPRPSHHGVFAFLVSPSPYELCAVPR
Sequence of Cytochrome P450 3A4 (P08684 whole entry): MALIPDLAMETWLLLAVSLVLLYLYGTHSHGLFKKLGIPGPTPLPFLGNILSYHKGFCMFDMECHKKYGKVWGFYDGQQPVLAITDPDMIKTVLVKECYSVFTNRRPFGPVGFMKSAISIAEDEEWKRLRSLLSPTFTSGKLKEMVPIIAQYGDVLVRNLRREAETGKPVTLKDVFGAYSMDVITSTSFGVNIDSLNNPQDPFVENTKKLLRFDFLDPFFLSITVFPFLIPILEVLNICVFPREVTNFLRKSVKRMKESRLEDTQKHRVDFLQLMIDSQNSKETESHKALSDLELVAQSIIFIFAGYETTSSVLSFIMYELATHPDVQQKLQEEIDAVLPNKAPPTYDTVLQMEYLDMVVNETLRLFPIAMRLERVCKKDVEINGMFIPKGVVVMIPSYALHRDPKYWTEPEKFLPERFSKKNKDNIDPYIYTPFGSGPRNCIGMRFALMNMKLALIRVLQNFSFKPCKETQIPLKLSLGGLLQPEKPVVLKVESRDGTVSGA

| SMILES | IC50 [1] [nM] | IC50 [2] [nM] | Ratio IC50 [3] | further results |
| --- | --- | --- | --- | --- |
| C=CCc1c(C)nc(-c2ccc(C)cc2)nc1Nc1ccc(C(=O)O)cc1 | 220 | 2800 | 13 |  |
| Cc1nc(-c2ccccc2)nc(Nc2ccc(C(=O)O)cc2)c1C(C)C | > 1000 |  |  |  |
| C=CCc1c(C)nc(-c2ccccc2)nc1Nc1ccc(CC(=O)O)cc1 | 1800 | > 10000 |  |  |
| C=CCc1c(C)nc(-c2ccc(C)s2)nc1Nc1ccc(C(=O)O)cc1 | 150 | 1300 | 8.6 |  |
| Cc1nc(-c2ccccc2)nc(Nc2ccc(C(=O)O)cc2)c1Cc1ccccc1 | > 1000 |  |  |  |
| CCc1c(C)nc(-c2ccc(Br)s2)nc1Nc1ccc(CC(=O)O)cc1 | 19 | 1600 | 87 |  |
| C=CCc1c(C)nc(-c2ccc(C)s2)nc1Nc1ccc(CC(=O)O)cc1 | 320 | 8800 | 28 |  |
| C=CCc1c(C)nc(-c2cccc(C)c2)nc1Nc1ccc(C(=O)O)cc1 | 210 | 1500 | 6.9 |  |
| C=CCc1c(C)nc(-c2ccsc2)nc1Nc1ccc(C(=O)O)cc1 | 68 | 990 | 15 |  |
| C=CCc1c(C)nc(-c2ccc(OC)s2)nc1Nc1ccc(CC(=O)O)cc1 | 190 | 5300 | 29 |  |
| C=CCc1c(CC)nc(-c2ccccc2)nc1Nc1ccc(C(=O)O)cc1 | 34 | 82 | 2.4 |  |
| C=CCc1c(C)nc(-c2ccccn2)nc1Nc1ccc(C(=O)O)cc1 | 3700 | 15000 | 4.1 |  |
| COc1ccc([C@]2(C#N)CC[C@@H](C(=O)O)CC2)cc1OC1CCCC1 [CILOMILAST] |  |  |  | inhibition in vivo at 10 mg/kg [4]: 35%; Activity [5]: Toxic; Activity [6]: Non-toxic; ED50 [7]: 2.2 mg/kg; Activity [8]: Toxic |
| C=CCc1c(C)nc(-c2ccc(C)cc2)nc1Nc1ccc(CC(=O)O)cc1 | 940 | 11000 | 12 |  |
| C=CCc1c(C)nc(-c2ccc(OC)cc2)nc1Nc1ccc(C(=O)O)cc1 | 220 | 2000 | 8.9 |  |
| C=CCc1c(CCC)nc(-c2ccccc2)nc1Nc1ccc(C(=O)O)cc1 | 690 | 2400 | 3.4 |  |
| Cc1nc(-c2ccccc2)nc(Nc2ccc(C(=O)O)cc2)c1C#N | 120 | 1500 | 12 |  |
| C=CCc1c(C)nc(-c2cnccn2)nc1Nc1ccc(C(=O)O)cc1 | 860 | 3000 | 3.5 |  |

| SMILES | IC50 [1] [nM] | IC50 [2] [nM] | Ratio IC50 [3] | further results |
| --- | --- | --- | --- | --- |
| C=CCc1c(Nc2ccc(C(=O)O)cc2)nc(-c2ccccc2)nc1C(C)C | > 1000 |  |  |  |
| Cc1nc(-c2ccccc2)nc(Nc2ccc(C(=O)O)cc2)c1CO | 540 | 8000 | 15 |  |
| Cc1nc(-c2ccccc2)nc(Nc2ccc(C(=O)O)cc2)c1CN | > 1000 |  |  |  |
| C=CCc1c(C)nc(-c2cccc(C)c2)nc1Nc1ccc(CC(=O)O)cc1 | 1200 | 9900 | 8 |  |
| CCc1c(C)nc(-c2ccc(Cl)s2)nc1Nc1ccc(CC(=O)O)cc1 | 15 | 1700 | 114 | Activity [9]: Toxic; Activity [10]: Non-toxic; AUC(0-inf) [11]: 52300 ng·h/mL; Cmax [12]: 4500 ng/mL; bioavailability [13]: 85%; IC50 [14]: > 10000 nM; IC50 [15]: > 10000 nM; IC50 [16]: > 10000 nM; IC50 [17]: > 2000 nM; Cmax [18]: 8700 ng/mL; inhibition in vivo at 25 mg/kg [19]: 46%; AUC(0-inf) [20]: 33500 ng·h/mL; inhibition in vivo at 12.5 mg/kg [21]: 44%; IC50 [22]: > 2000 nM; IC50 [23]: > 10000 nM; IC50 [24]: > 2000 nM; IC50 [25]: > 2000 nM; ED50 [7]: 14 mg/kg |
| CCc1c(C)nc(-c2ccc(F)s2)nc1Nc1ccc(CC(=O)O)cc1F | 15 | 3100 | 205 | AUC(0-inf) [11]: 21900 ng·h/mL; Cmax [12]: 14800 ng/mL; bioavailability [13]: 73%; IC50 [14]: > 10000 nM; IC50 [15]: > 10000 nM; IC50 [16]: > 10000 nM; Cmax [18]: 10900 ng/mL; AUC(0-inf) [20]: 341000 ng·h/mL; IC50 [23]: > 10000 nM |
| CCCc1c(C)nc(-c2ccccc2)nc1Nc1ccc(C(=O)O)cc1 | 1300 | 7600 | 5.6 |  |
| C=CCc1c(C)nc(-c2ccc(OC)s2)nc1Nc1ccc(C(=O)O)cc1 | 78 | 760 | 9.8 |  |
| Cc1nc(-c2ccccc2)nc(Nc2ccc(C(=O)O)cc2)c1C=O | 300 | 1500 | 5.2 |  |
| C=CCc1c(C)nc(-c2ccc(OC)cc2)nc1Nc1ccc(CC(=O)O)cc1 | 600 | 4800 | 8 |  |
| CCc1c(C)nc(-c2ccc(SC)s2)nc1Nc1ccc(CC(=O)O)cc1 | 34 | 1500 | 43 |  |
| CCCCc1c(C)nc(-c2ccccc2)nc1Nc1ccc(C(=O)O)cc1 | > 1000 |  |  |  |
| C=CCc1c(C)nc(-c2cccs2)nc1Nc1ccc(C(=O)O)cc1 | 120 | 1300 | 11 |  |
| CCc1c(C)nc(-c2cc(Br)c(C)s2)nc1Nc1ccc(CC(=O)O)cc1 | 6.8 | 2900 | 420 |  |
| C=CCc1c(C)nc(-c2csc(C)n2)nc1Nc1ccc(C(=O)O)cc1 | 2800 | 12000 | 4.2 |  |
| Cc1nc(-c2ccccc2)nc(Nc2ccc(C(=O)O)cc2)c1C | 430 | 3400 | 7.9 |  |
| C=CCc1c(C)nc(-c2ccccc2)nc1Nc1ccc(C(=O)O)cc1 | 190 | 1900 | 9.7 |  |
| CCc1c(C)nc(-c2ccccc2)nc1Nc1ccc(C(=O)O)cc1 | 140 | 2100 | 15 |  |
